Data as given in patent US11083732B2, “Use of negative modulators of GABA receptors containing alpha5 subunits as fast acting antidepressants” (University of Maryland, Baltimore, priority 2014, dated 2021).
Entries after “also recorded” stand apart in the source; their conditions may differ.

Key:
[1] = system: rats subjected to chronic restraint stress; assay: Sucrose preference test (SPT) after chronic restraint stress (CRS); type: in vivo, rat; details: 10 days CRS; L-655,708 0.7 mg/kg i.p.; 24 hrs post-injection; vs pre-stress baseline
Source text: (§1) MRK-016 rapidly reverses loss of sucrose preference and social interaction behaviors after chronic restraint stress (FIG. 9). […] This persisted for 7 days despite further stress exposure. and in the same animals after an additional week of CRS and 7 days after the injection of MRK-016.
(§2) Chronic restraint stress (CRS). Male Sprague Dawley rats (4-5 weeks-old; Harlan Laboratories) were placed in appropriately sized restraint tubes, highly restricting their movement for periods of four hours in a brightly lit lab, every day for ten days during the light phase of their diurnal cycle (Lim et al., 2012).
(§3) Sucrose preference test (SPT). Rats were given a choice between two bottles containing tap water or a 1% sucrose solution (Rygula et al., 2006). Testing was conducted overnight (16 hours), including the full duration of their dark phase. Animals were first trained with both bottles while group-housed. For subsequent tests, including during the baseline period, animals were individually housed. Sucrose preference was calculated as amount of the sucrose solution consumed as a percentage of the total amount of liquid consumed.
Drugs/stats. L-655,708 was purchased from Tocris Bioscience (R&D Systems, Minneapolis, Minn.) and prepared at a concentration of 5 mM in 75% saline/25% DMSO. […] This dose is sufficient to occupy about 70% of forebrain binding sites (Atack et al., 2005)
(§4) Several hedonic behaviors in rodents are sensitive to chronic stress and are restored by chronic, but not acute, administration of SSRIs, providing one means to screen for potential antidepressant compounds. First, it was determined whether L-655,708 would rapidly (<24 hrs) restore normal hedonic behavior following chronic restraint stress (Watanabe et al., 1992; Lim et al., 2012), consistent with the rapid antidepressant-like actions of ketamine (Li et al., 2011). Baseline measurements were first made of social interaction and sucrose preference, and then 4-5 week old rats were subjected to ten days of CRS. […]

[2] = system: rats subjected to chronic restraint stress; assay: Social interaction test (SIT) after chronic restraint stress (CRS); type: in vivo, rat; details: 10 days CRS; L-655,708 0.7 mg/kg i.p.; 24 hrs post-injection; vs baseline
Source text: as §1, §2
Social interaction test (SIT). As described previously (Berton et al., 2006), rats were placed in a plastic enclosure (82×82 cm) with a 5×5 grid of squares (16.4×16.4 cm) visible underneath the clear plastic flooring. A small translucent perforated plastic box (20×16 cm) was placed against the center of one wall of the arena. During the testing conditions white overhead fluorescent lighting was used to illuminate the arena. A video camera positioned 170 cm above the floor of the arena was used to track the movements of the rats during the experiment.
Each test consisted of a “target-absent” trial followed by a “target-present” trial. During testing, an individual test rat was placed in the center of the arena and, after 30s of adaptation, the rat's movements were recorded with the video camera for 2.5 minutes. […]
Results were quantified as the percentage of time spent in the “interaction zone” (the five grid squares immediately surrounding the plastic cage) as measured for both the “target-absent” and “target-present” trials. […]
as §4, with “2011).” for “2011). Baseline measurements were first made of social interaction and sucrose preference, and then 4-5 week old rats were subjected to ten days of CRS.”

[3] = system: rats subjected to chronic unpredictable stress; assay: Sucrose preference test (SPT) after chronic unpredictable stress (CUS); type: in vivo, rat; details: L-655,708 24 hours earlier
Experimental: Sucrose preference test. Rats are administered a sucrose preference test before chronic unpredictable stress or no stress. The left bar of the pairs (black) reflects CUS rats and the right bar of the pairs (white) reflects unstressed rats.
Chronic unpredictable stress (CUS). Male Sprague-Dawley rats (4-5 weeks-old; Harlan Laboratories) were randomly divided into control and CUS groups. Rats in the CUS group were individually housed. CUS animals were treated with two mild stressors every day for 5-6 weeks during their light phase (Willner et al., 1987). The stressors were randomly cycled to enhance unpredictability. The stressors were: forced swim, in which rats were placed in a basin containing cold water for 5 minutes; strobe lighting, in otherwise total darkness for 30 minutes; restraint, during which rats were put into appropriately sized restraint tubes for 30 minutes; exposure to white noise for 30 minutes; and food or water deprivation for 14 hours spanning the dark phase.
as §3, with “Animals were first trained with both bottles while group-housed. For subsequent tests, including during the baseline period, animals were individually housed.” left out

[4] = system: ΔFosB; assay: FosB and ΔFosB expression after injection; type: in vivo, rat
Source text: D3. Nestler and colleagues have shown that induction of the transcription factor ΔFosB in D1R-expressing medium spiny neurons in the NAc in response to chronic stress is an important mediator of resilience and may play a role in the antidepressant actions of fluoxetine by changing gene expression and synaptic strength (Perrotti et al., 2004; Lobo et al., 2013; Grueter et al., 2013). It is considered whether alpha5 GABA-NAM injection also affects deltaFosB expression. Control and CRS-susceptible rats receive an injection of L-665, 708. […] Tissue punches are taken from the NAc, area CA1, EC, and PFC and subjected to Western blotting for quantification of deltaFosB levels. Sections are prepared from these same regions and stained for ΔFosB in order to count immunoreactive nuclei with stereological techniques (Vialou et al., 2010). Sections through the ventral striatum are co-stained with an antibody against the D1R, since the expression of ΔFosB in these cells may be particularly important for SSRI actions (Lobo et a/., 2013). Similar to fluoxetine, in specific embodiments in stressed and unstressed animals, alpha5 GABA-NAM affects ΔFosB expression in the NAc and other brain regions, consistent with initial studies (FIG. 5).

[5] = system: rats; assay: Open field test (anxiety); details: rat, in vivo
Source text: C1. One cohort of control rats are given a baseline open field test. One week later, half of the animals receive an injection of L-665,708 or vehicle, followed 24 hrs later by a second open field test in a new arena.

[6] = system: forebrain binding sites; details: 0.7 mg/kg i.p.; Atack et al., 2005; cited from earlier work

SMILES: CCOC(=O)c1ncn2c1[C@@H]1CCCN1C(=O)c1cc(OC)ccc1-2 [L-655,708, ethyl (13aS)-7-methoxy-9-oxo-11, 12,13,13 a-terahydro-9H-imidazo[1,5-a]pyrrolo[2,1-c] [1,4]benzodiazepine-1-carboxylate]
- sucrose preference [1]: not different from their pre-stress baseline
- social interaction ratio [2]: not significantly different than baseline
- sucrose preference [3]: restores the behavior; also recorded: restored sucrose preference
- expression of FosB and ΔFosB ([4]; 24 hrs after injection): No changes were apparent
- expression of FosB and ΔFosB in the NAc ([4]; unstressed animals, one hour after injection): increase
- anxiety in the open field test [5]: no evidence of increased anxiety
- occupancy of forebrain binding sites [6]: about 70%
